Results published in US12096769B2, “Mechanism of urea/solid acid interaction under storage conditions and storage stable solid compositions comprising urea and acid” (ECOLAB USA INC., priority 2017, dated 2024).

Key:
Assay type in all cases: physicochemical
[1] = pH in 17 grains per gallon (gpg) water, Example 5; conditions: Dose 625 ppm
Description: The pH of the urea/citric acid complex was also compared to those of citric acid and monosodium citrate.

[2] = Swelling of tablets made with various acids as the acid filler, Example 2
[3] = Block stability in a dispenser (swelling after 1 minute soak in water), Example 7; conditions: soaked in 1 inch of water at 43.3° C. (110° F.) for 1 minute; up to 18 hours
Protocol: Various blocks made from different formulations were screened for their block stability in a dispenser. During the experiments, the blocks were soaked in 1 inch of water at 43.3° C. (110° F.) for 1 minute, then measured for their swelling as a function of time.

[4] = Tablet dimensional change at 40° C. and 90% humidity, Example 6; conditions: acid filler of the formulation
Protocol: A formulation using urea/citric acid complex as the acid filler were compared to those using urea or a mixture of urea and citric acid. In this Example, tablets were made according to the formulations in Table 8, then placed at 40° C. and 90% humidity. Their dimensional changes were measured during two-weeks period of time.

Structure (SMILES) | Swelling of the tablet using the acid as the filler ([2]; 4 Week at 40° C.) | pH in 17 gpg Water [1] | other results
O=C(O)CC(O)(CC(=O)O)C(=O)O [Citric Acid] | – | 4.45 | –
CC(O)C(=O)O (centres unmarked) [Lactic Acid] | Weeping | – | State of the tablet using the acid as the filler ([2]; at 50° C.): melted
O=C([O-])CC(O)(CC(=O)O)C(=O)O.[Na+] [Monosodium citrate] | – | 5.6 | –
NC(N)=O.O=C(O)CC(O)(CC(=O)O)C(=O)O [Urea-Citrate, urea-citric acid complex] | – | 4.8 | Swelling of the block after soak (in words) [3]: swelling is minimal; Swelling of the tablet using the acid as the filler ([2]; at 2 weeks, 40° C.): 0.5% at 2 weeks; Storage stability as measured by percentage swelling (in words) [4]: best storage stability

Continued, in another order:

Swelling of the tablet using the acid as the filler ([2]; 4 Week at 40° C.) | Structure (SMILES) | pH in 17 gpg Water [1] | other results
Melted | O=C(O)/C=C\C(=O)O [Maleic Acid] | – | –
~5% | O=C(O)CC(O)C(=O)O (centres unmarked) [Malic Acid] | – | –
Weeping | O=C(O)CC(=O)O [Malonic Acid] | – | –
